{"source": "patent US4521422A", "about": "“Aryl and heteroaryl[7-(aryl and heteroaryl)pyrazolo[1,5-a]pyrimidin-3-yl]methanones” (American Cyanamid Company, priority 1984, dated 1985)", "data": [{"system": "Clonic Seizures Caused by Pentylenetetrazole in Rats", "assay": "Protection against clonic seizures caused by pentylenetetrazole in rats", "type": "in vivo", "details": "Rattus norvegicus; dose 25.0 mg/kg, oral or i.p.; pentylenetetrazole 23 mg/kg i.v. at 30 or 60 min; read-out: % of Rats Protected", "protocol": "The anti-anxiety and anticonvulsant properties of the novel compounds of the present invention have been established in a test which indicates anxiolytic and antiepileptic activity by the measure of protection from convulsions resulting from the administration of pentylenetetrazole. Single or graded dose levels of the test compounds were administered orally or intraperitoneally in a 2% starch vehicle, containing 0.5% v/v polyethylene glycol and one drop of Polysorbate 80 to groups of at least 4 rats. At 30 or 60 minutes, the rats were treated intravenously with pentylenetetrazole at a dose of 23 mg/kg of body weight. This dose is estimated to cause clonic seizures in 99% of unprotected rats. It has been reported [R. T. Hill and D. H. Tedeschi, \"Animal Testing and Screening Procedures in Evaluating Psychotropic Drugs\" in \"An Introduction to Psychopharmacology\", Eds. R. R. Rech and K. E. Moore, Raven Press, New York, pp 237-288 (1971)] that there is a high degree of correlation between antagonism of pentylenetetrazole seizures in rats and anti-anxietyor anticonvulsant effects in higher warm-blooded animals.", "units": {"responders at 25 mg/kg": "%"}, "values": [{"compound": "Cc1cnc2c(C(=O)c3ccccc3)cnn2c1-c1ccccc1", "note": "[(6-methyl-7-phenylpyrazolo[1,5-a]pyrimidin-3-yl)phenyl-methanone]", "responders at 25 mg/kg": 25}, {"compound": "COc1ccc(C(=O)c2cnn3c(-c4cccc(C(F)(F)F)c4)ccnc23)cc1OC", "note": "[(3,4-dimethoxyphenyl)[7-[3-(trifluoromethyl)phenyl]pyrazolo[1,5-a]pyrimidin-3-yl]methanone]", "responders at 25 mg/kg": 50}, {"compound": "O=C(c1ccc(F)cc1)c1cnn2c(-c3ccccc3F)ccnc12", "note": "[(4-fluorophenyl)[7-(2-fluorophenyl)pyrazolo[1,5-a]pyrimidin-3-yl]methanone]", "responders at 25 mg/kg": 50}, {"compound": "O=C(c1cccs1)c1cnn2c(-c3cccnc3)ccnc12", "note": "[[7-(3-pyridinyl)pyrazolo[1,5-a]pyrimidin-3-yl]-2-thienyl-methanone]", "responders at 25 mg/kg": 75}, {"compound": "Cc1nn2c(-c3cccnc3)ccnc2c1C(=O)c1ccccc1", "note": "[[2-methyl-7-(3-pyridinyl)pyrazolo[1,5-a]pyrimidin-3-yl]phenyl-methanone]", "responders at 25 mg/kg": 50}, {"compound": "COc1ccc(-c2cc(C)nc3c(C(=O)c4ccc(F)cc4)cnn23)cc1OC", "note": "[[7-(3,4-dimethoxyphenyl)-5-methylpyrazolo[1,5-a]pyrimidin-3-yl](4-fluorophenyl)methanone]", "responders at 25 mg/kg": 25}, {"compound": "Cc1cc(-c2cc[n+]([O-])cc2)n2ncc(C(=O)c3ccccc3)c2n1", "note": "[[5-Methyl-7-(4-pyridinyl)pyrazolo[1,5-a]pyrimidin-3-yl]phenyl-methanone, pyridine-1-oxide]", "responders at 25 mg/kg": 25}]}, {"system": "Brain-Specific Receptors of Rats", "assay": "Inhibition of the binding of 3H-benzodiazepine to brain-specific receptors of rats", "design": "species or system rat (Wistar)", "details": "3H-diazepam 1.5 nM or 3H-flunitrazepam 1.0 nM; rat cortex P2 fraction; test concentration not given", "units": {"% Inhibition": "%"}, "values": [{"compound": "N#Cc1ccc(-c2ccnc3c(C(=O)c4ccccc4)cnn23)cc1", "note": "[4-(3-benzoylpyrazolo[1,5-a]pyrimidin-7-yl)benzonitrile]", "% Inhibition": 10}, {"compound": "Cc1cc(-c2cccc(C(F)(F)F)c2)n2ncc(C(=O)c3ccccc3)c2n1", "note": "[[5-Methyl-7-[3-(trifluoromethyl)phenyl]pyrazolo[1,5-a]pyrimidin-3-yl]phenyl-methanone]", "% Inhibition": 27}, {"compound": "O=C(c1ccccc1)c1cnn2c(-c3cccc(Cl)c3)ccnc12", "note": "[[7-(3-chlorophenyl)pyrazolo[1,5-a]pyrimidin-3-yl]phenyl-methanone]", "% Inhibition": 95}, {"compound": "Cc1cc(-c2cccnc2)n2ncc(C(=O)c3ccccc3)c2n1", "note": "[[5-Methyl-7-(3-pyridinyl)pyrazolo[1,5-a]pyrimidin-3-yl]phenyl-methanone]", "% Inhibition": 15}, {"compound": "Cc1nn2c(-c3cccc(C(F)(F)F)c3)ccnc2c1C(=O)c1ccccc1", "note": "[(2-methyl-7-[3-(trifluoromethyl)phenyl]pyrazolo[1,5-a]pyrimidin-3-yl)phenyl-methanone]", "% Inhibition": 54}, {"compound": "O=C(c1ccc(Cl)cc1)c1cnn2c(-c3ccc(F)cc3)ccnc12", "note": "[(4-chlorophenyl)[7-(4-fluorophenyl)pyrazolo[1,5-a]pyrimidin-3-yl]methanone]", "% Inhibition": 16}, {"compound": "O=C(c1ccccn1)c1cnn2c(-c3ccccn3)ccnc12", "note": "[2-pyridinyl[7-(2-pyridinyl)pyrazolo[1,5-a]pyrimidin-3-yl]methanone]", "% Inhibition": 77}, {"compound": "COc1cc(-c2ccnc3c(C(=O)c4ccccc4)cnn23)cc(OC)c1OC", "note": "[phenyl[7-(3,4,5-trimethoxyphenyl)pyrazolo[1,5-a]pyrimidin-3-yl]methanone]", "% Inhibition": 24}, {"compound": "O=C(c1ccc(Cl)cc1)c1cnn2c(-c3cccnc3)ccnc12", "note": "[(4-chlorophenyl)[7-(3-pyridinyl)pyrazolo[1,5-a]pyrimidin-3-yl]methanone]", "% Inhibition": 87}, {"compound": "O=C(c1ccc(F)cc1)c1cnn2c(-c3cc[n+]([O-])cc3)ccnc12", "note": "[(4-Fluorophenyl)[7-(4-pyridinyl)pyrazolo[1,5-a]pyrimidin-3-yl]methanone, pyridine-1-oxide]", "% Inhibition": 15}, {"compound": "Cc1cnc2c(C(=O)c3ccccc3)cnn2c1-c1ccccc1", "note": "[(6-methyl-7-phenylpyrazolo[1,5-a]pyrimidin-3-yl)phenyl-methanone]", "% Inhibition": 24}, {"compound": "O=C(c1ccccc1)c1cnn2c(-c3cccc(F)c3)ccnc12", "note": "[[7-(3-fluorophenyl)pyrazolo[1,5-a]pyrimidin-3-yl]phenyl-methanone]", "% Inhibition": 88}, {"compound": "COc1ccc(C(=O)c2cnn3c(-c4cccc(C(F)(F)F)c4)ccnc23)cc1OC", "note": "[(3,4-dimethoxyphenyl)[7-[3-(trifluoromethyl)phenyl]pyrazolo[1,5-a]pyrimidin-3-yl]methanone]", "% Inhibition": 94}, {"compound": "O=C(c1ccc(F)cc1)c1cnn2c(-c3ccccc3F)ccnc12", "note": "[(4-fluorophenyl)[7-(2-fluorophenyl)pyrazolo[1,5-a]pyrimidin-3-yl]methanone]", "% Inhibition": 22}, {"compound": "O=C(c1cccc(C(F)(F)F)c1)c1cnn2c(-c3ccco3)ccnc12", "note": "[[7-(2-furanyl)pyrazolo[1,5-a]pyrimidin-3-yl][3-(trifluoromethyl)phenyl]methanone]", "% Inhibition": 36}, {"compound": "Cc1cc(-c2ccncc2)n2ncc(C(=O)c3ccccc3)c2n1", "note": "[[5-Methyl-7-(4-pyridinyl)pyrazolo[1,5-a]pyrimidin-3-yl]phenyl-methanone]", "% Inhibition": 93}, {"compound": "O=C(c1ccccc1)c1cnn2c(-c3cc(Cl)ccc3Cl)ccnc12", "note": "[[7-(2,5-dichlorophenyl)pyrazolo[1,5-a]pyrimidin-3-yl]phenyl-methanone]", "% Inhibition": 21}, {"compound": "COc1cc(OC)cc(C(=O)c2cnn3c(-c4cccnc4)ccnc23)c1", "note": "[(3,5-dimethoxyphenyl)[7-(3-pyridinyl)pyrazolo[1,5-a]pyrimidin-3-yl]methanone]", "% Inhibition": 30}, {"compound": "O=C(c1cccs1)c1cnn2c(-c3cccnc3)ccnc12", "note": "[[7-(3-pyridinyl)pyrazolo[1,5-a]pyrimidin-3-yl]-2-thienyl-methanone]", "% Inhibition": 82}, {"compound": "O=C(c1ccccc1)c1cnn2c(-c3cccs3)ccnc12", "note": "[phenyl[7-(2-thienyl)pyrazolo[1,5-a]pyrimidin-3-yl]methanone]", "% Inhibition": 96}, {"compound": "Cc1nn2c(-c3cccnc3)ccnc2c1C(=O)c1ccccc1", "note": "[[2-methyl-7-(3-pyridinyl)pyrazolo[1,5-a]pyrimidin-3-yl]phenyl-methanone]", "% Inhibition": 52}, {"compound": "O=C(c1cccc(C(F)(F)F)c1)c1cnn2c(-c3ccccc3)ccnc12", "note": "[(7-phenylpyrazolo[1,5-a]pyrimidin-3-yl)[3-(trifluoromethyl)phenyl]methanone]", "% Inhibition": 19}, {"compound": "CC(=O)Nc1cccc(-c2ccnc3c(C(=O)c4ccccc4)cnn23)c1", "note": "[N--[3-(3-benzoylpyrazolo[1,5-a]pyrimidin-7-yl)phenyl]acetamide]", "% Inhibition": 65}, {"compound": "COc1ccc(-c2cc(C)nc3c(C(=O)c4ccc(F)cc4)cnn23)cc1OC", "note": "[[7-(3,4-dimethoxyphenyl)-5-methylpyrazolo[1,5-a]pyrimidin-3-yl](4-fluorophenyl)methanone]", "% Inhibition": 48}, {"compound": "O=C(c1cccc(F)c1)c1cnn2c(-c3cccc(C(F)(F)F)c3)ccnc12", "note": "[(3-fluorophenyl)[7-[3-(trifluoromethyl)phenyl]pyrazolo[1,5-a]pyrimidin-3-yl]methanone]", "% Inhibition": 96}, {"compound": "Cc1ccc(C(=O)c2cnn3c(-c4ccsc4)ccnc23)cc1", "note": "[(4-methylphenyl)[7-(3-thienyl)pyrazolo[1,5-a]pyrimidin-3-yl]methanone]", "% Inhibition": 58}, {"compound": "Cc1cc(-c2cc[n+]([O-])cc2)n2ncc(C(=O)c3ccccc3)c2n1", "note": "[[5-Methyl-7-(4-pyridinyl)pyrazolo[1,5-a]pyrimidin-3-yl]phenyl-methanone, pyridine-1-oxide]", "% Inhibition": 52}, {"compound": "CSc1cccc(-c2ccnc3c(C(=O)c4ccccc4)cnn23)c1", "note": "[[7-[3-(methylthio)phenyl]pyrazolo[1,5-a]pyrimidin-3-yl]phenyl-methanone]", "% Inhibition": 98}, {"compound": "O=C(c1ccccc1)c1cnn2c(-c3ccccn3)ccnc12", "note": "[phenyl[7-(2-pyridinyl)pyrazolo[1,5-a]pyrimidin-3-yl]methanone]", "% Inhibition": 30}, {"compound": "O=C(c1ccco1)c1cnn2c(-c3ccccc3F)ccnc12", "note": "[[7-(2-fluorophenyl)pyrazolo[1,5-a]pyrimidin-3-yl]-2-furanyl-methanone]", "% Inhibition": 34}, {"compound": "CC(=O)Nc1ccc(-c2ccnc3c(C(=O)c4ccccc4)cnn23)cc1", "note": "[N-[4-(3-Benzoylpyrazolo[1,5-a]pyrimidin-7-yl)phenyl]acetamide]", "% Inhibition": 33}, {"compound": "Cc1ccc(C(=O)c2cnn3c(-c4ccccn4)ccnc23)cc1", "note": "[(4-methylphenyl)[7-(2-pyridinyl)pyrazolo[1,5-a]pyrimidin-3-yl]methanone]", "% Inhibition": 13}, {"compound": "O=C(c1ccccc1)c1cnn2c(-c3cc(C(F)(F)F)ccc3Cl)ccnc12", "note": "[[7-[2-chloro-5-(trifluoromethyl)phenyl]pyrazolo[1,5-a]pyrimidin-3-yl]phenyl-methanone]", "% Inhibition": 86}, {"compound": "O=C(c1cccs1)c1cnn2c(-c3ccncc3)ccnc12", "note": "[[7-(4-pyridinyl)pyrazolo[1,5-a]pyrimidin-3-yl]-2-thienyl-methanone]", "% Inhibition": 62}, {"compound": "O=C(c1ccccc1)c1cnn2c(-c3ccsc3)ccnc12", "note": "[phenyl[7-(3-thienyl)pyrazolo[1,5-a]pyrimidin-3-yl]methanone]", "% Inhibition": 96}, {"compound": "O=C(c1cccc(C(F)(F)F)c1)c1cnn2c(-c3cccc(C(F)(F)F)c3)ccnc12", "note": "[[3-(trifluoromethyl)phenyl][7-[3-(trifluoromethyl)phenyl]pyrazolo[1,5-a]pyrimidin-3-yl]methanone]", "% Inhibition": 56}, {"compound": "O=C(c1ccc(F)cc1)c1cnn2c(-c3ccccc3)ccnc12", "note": "[(4-fluorophenyl)(7-phenylpyrazolo[1,5-a]pyrimidin-3-yl)methanone]", "% Inhibition": 42}, {"compound": "O=C(c1cccc(F)c1)c1cnn2c(-c3ccc(F)cc3)ccnc12", "note": "[(3-fluorophenyl)[7-(4-fluorophenyl)pyrazolo[1,5-a]pyrimidin-3-yl]methanone]", "% Inhibition": 52}, {"compound": "O=C(c1ccccc1)c1cnn2c(-c3ccccc3)ccnc12", "note": "[Phenyl(7-phenylpyrazolo[1,5-a]pyrimidin-3-yl)methanone]", "% Inhibition": 55}, {"compound": "O=C(c1ccccn1)c1cnn2c(-c3cccs3)ccnc12", "note": "[2-pyridinyl[7-(2-thienyl)pyrazolo[1,5-a]pyrimidin-3-yl]methanone]", "% Inhibition": 24}, {"compound": "O=C(c1ccco1)c1cnn2c(-c3ccccc3)ccnc12", "note": "[2-Furanyl(7-phenylpyrazolo[1,5-a]pyrimidin-3-yl)methanone]", "% Inhibition": 81}, {"compound": "O=C(c1cccc(C(F)(F)F)c1)c1cnn2c(-c3ccncc3)ccnc12", "note": "[[7-(4-pyridinyl)pyrazolo[1,5-a]pyrimidin-3-yl][3-(trifluoromethyl)phenyl]methanone]", "% Inhibition": 99}, {"compound": "Cc1cc(-c2cccnc2)n2ncc(C(=O)c3ccc(F)cc3)c2n1", "note": "[(4-fluorophenyl)[5-methyl-7-(3-pyridinyl)pyrazolo[1,5-a]pyrimidin-3-yl]methanone]", "% Inhibition": 25}]}]}
